According to ChEMBL document CHEMBL5649166, “RIP3 induces apoptosis independent of pronecrotic kinase activity” (Mol Cell, 2014):

What was measured:
[1] = target: Wee1-like protein kinase (Homo sapiens) (UniProt P30291); assay: Inhibition of human WEE1 using CDK1 (D146N)/cyclin B1 as substrate at 1 uM in presence of 32P-ATP by Hotspot assay relative to control; values are per cent of control
[2] = target: G protein-coupled receptor kinase 4 (Homo sapiens) (UniProt P32298); assay: Inhibition of human GRK4 using casein as substrate at 1 uM in presence of 32P-ATP by Hotspot assay relative to control; values are per cent of control
Sequence of G protein-coupled receptor kinase 4 (Homo sapiens) (P32298 whole entry, looked up): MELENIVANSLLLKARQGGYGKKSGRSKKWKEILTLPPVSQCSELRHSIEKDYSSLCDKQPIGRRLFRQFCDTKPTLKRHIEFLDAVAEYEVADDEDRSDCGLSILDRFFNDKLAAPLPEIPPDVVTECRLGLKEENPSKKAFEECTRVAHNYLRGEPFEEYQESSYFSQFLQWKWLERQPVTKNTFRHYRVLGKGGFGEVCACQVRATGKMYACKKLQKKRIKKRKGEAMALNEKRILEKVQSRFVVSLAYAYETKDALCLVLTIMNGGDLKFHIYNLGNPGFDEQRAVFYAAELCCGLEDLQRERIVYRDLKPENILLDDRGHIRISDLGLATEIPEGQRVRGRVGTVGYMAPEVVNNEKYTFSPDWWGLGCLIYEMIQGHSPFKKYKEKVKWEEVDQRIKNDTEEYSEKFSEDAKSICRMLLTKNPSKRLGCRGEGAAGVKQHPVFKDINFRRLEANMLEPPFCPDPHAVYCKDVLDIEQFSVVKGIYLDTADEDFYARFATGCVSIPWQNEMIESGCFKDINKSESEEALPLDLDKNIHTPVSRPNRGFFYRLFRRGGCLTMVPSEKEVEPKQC

[3] = target: T1, cGMP-dependent protein kinase 1 (Homo sapiens) (UniProt Q13976); assay: Inhibition of human PKG1b using LRRASLG as substrate at 1 uM in presence of 32P-ATP by Hotspot assay relative to control; values are per cent of control
T1 sequence (whole entry): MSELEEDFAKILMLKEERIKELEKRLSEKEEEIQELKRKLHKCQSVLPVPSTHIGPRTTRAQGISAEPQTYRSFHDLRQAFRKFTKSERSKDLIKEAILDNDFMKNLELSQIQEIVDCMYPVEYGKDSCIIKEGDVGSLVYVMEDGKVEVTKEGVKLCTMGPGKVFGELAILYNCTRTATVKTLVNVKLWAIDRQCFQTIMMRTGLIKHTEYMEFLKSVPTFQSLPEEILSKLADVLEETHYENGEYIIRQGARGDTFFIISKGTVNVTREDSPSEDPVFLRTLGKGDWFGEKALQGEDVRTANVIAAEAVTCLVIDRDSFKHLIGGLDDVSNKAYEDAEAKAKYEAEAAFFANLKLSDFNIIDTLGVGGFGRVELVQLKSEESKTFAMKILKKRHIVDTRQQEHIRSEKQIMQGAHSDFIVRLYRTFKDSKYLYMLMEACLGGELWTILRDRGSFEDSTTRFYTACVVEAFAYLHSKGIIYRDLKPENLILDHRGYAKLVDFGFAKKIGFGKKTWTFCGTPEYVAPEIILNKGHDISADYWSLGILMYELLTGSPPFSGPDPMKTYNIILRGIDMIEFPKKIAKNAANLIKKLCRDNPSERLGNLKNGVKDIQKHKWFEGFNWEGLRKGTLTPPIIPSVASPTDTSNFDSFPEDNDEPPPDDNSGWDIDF

[4] = target: Serine/threonine-protein kinase N1 (Homo sapiens) (UniProt Q16512); assay: Inhibition of human PKN1/PRK1 using KKLNRTLSVA as substrate at 1 uM in presence of 32P-ATP by Hotspot assay relative to control; values are per cent of control
Sequence of Serine/threonine-protein kinase N1 (Homo sapiens) (Q16512 2-942 limits assumed): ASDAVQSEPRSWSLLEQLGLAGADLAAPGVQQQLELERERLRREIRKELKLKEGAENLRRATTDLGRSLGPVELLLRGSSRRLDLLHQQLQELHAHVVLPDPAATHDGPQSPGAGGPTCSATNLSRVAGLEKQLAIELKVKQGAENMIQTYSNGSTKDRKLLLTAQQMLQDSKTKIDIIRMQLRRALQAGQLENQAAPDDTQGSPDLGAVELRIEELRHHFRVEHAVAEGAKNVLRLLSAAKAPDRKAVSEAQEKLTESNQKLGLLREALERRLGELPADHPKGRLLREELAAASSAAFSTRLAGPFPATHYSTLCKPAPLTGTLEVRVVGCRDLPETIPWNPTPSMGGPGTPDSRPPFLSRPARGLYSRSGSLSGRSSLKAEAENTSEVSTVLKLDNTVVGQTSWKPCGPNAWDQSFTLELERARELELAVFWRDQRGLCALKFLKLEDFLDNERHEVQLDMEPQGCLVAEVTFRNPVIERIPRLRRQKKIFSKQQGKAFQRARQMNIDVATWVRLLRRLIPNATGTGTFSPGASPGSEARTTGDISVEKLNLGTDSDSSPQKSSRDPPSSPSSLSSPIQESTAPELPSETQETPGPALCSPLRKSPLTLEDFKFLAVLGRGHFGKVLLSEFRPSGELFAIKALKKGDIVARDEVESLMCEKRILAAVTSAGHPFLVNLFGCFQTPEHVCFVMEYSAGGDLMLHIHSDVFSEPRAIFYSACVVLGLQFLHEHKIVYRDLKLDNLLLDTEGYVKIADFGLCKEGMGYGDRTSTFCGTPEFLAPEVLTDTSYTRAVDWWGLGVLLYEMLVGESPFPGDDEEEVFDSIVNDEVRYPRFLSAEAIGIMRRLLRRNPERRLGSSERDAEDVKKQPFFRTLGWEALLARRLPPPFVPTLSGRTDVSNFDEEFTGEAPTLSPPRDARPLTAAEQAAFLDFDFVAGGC

[5] = target: T2, MAP kinase-activated protein kinase 5 (Homo sapiens) (UniProt Q8IW41); assay: Inhibition of human MAPKAPK5/PRAK using KKLNRTLSVA as substrate at 1 uM in presence of 32P-ATP by Hotspot assay relative to control; values are per cent of control
T2 sequence (whole entry): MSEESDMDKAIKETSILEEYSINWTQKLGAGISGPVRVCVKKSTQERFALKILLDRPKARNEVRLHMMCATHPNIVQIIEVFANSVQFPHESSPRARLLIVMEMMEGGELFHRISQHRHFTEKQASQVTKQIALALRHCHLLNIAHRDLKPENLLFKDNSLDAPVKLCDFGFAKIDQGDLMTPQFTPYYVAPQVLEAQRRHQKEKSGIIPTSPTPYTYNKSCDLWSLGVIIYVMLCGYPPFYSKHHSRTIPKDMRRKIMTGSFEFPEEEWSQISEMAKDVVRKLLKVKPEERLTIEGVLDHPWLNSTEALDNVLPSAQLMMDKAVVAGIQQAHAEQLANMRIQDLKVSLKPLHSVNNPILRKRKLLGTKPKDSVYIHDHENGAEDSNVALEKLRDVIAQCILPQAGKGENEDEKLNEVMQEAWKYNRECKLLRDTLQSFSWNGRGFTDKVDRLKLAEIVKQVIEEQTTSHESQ

[6] = target: T3, Serine/threonine-protein kinase Sgk3 (Homo sapiens) (UniProt Q96BR1); assay: Inhibition of human SGK3/SGKL using KGSGSGRPRTSSFAEG as substrate at 1 uM in presence of 32P-ATP by Hotspot assay relative to control; values are per cent of control
T3 sequence (whole entry): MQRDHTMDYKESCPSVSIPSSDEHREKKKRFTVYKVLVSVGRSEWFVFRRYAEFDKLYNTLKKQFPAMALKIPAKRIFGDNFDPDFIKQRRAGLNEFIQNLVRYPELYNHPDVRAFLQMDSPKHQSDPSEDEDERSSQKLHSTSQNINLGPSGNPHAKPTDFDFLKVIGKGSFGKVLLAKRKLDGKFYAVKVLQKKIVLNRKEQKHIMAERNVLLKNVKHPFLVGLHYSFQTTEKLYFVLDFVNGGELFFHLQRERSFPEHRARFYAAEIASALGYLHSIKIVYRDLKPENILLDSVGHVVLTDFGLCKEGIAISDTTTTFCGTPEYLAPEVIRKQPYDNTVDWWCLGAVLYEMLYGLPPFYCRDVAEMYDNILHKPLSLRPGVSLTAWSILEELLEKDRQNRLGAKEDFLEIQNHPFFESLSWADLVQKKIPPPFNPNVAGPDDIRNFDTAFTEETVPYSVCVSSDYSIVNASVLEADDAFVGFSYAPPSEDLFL

Sequence of Wee1-like protein kinase (Homo sapiens) (P30291 whole entry, looked up): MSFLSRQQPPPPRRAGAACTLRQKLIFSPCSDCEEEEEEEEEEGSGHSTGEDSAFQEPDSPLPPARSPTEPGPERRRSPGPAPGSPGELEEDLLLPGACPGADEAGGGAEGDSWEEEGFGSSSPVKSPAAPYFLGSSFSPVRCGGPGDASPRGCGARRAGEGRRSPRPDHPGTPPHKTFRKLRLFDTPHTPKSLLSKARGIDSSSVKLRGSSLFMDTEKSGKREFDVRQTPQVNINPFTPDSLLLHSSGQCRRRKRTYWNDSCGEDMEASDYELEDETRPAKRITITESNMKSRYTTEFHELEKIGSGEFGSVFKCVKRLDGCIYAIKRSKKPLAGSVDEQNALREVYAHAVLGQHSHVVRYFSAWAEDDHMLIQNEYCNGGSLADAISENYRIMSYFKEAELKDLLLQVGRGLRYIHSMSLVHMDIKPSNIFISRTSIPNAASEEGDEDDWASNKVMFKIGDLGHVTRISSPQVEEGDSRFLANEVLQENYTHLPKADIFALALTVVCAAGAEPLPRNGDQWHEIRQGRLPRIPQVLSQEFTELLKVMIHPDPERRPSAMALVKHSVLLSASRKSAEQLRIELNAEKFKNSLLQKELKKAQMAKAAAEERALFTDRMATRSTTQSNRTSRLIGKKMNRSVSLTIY

Molecule Cc1cc(-c2cnc(N)c3c(-c4ccc5scnc5c4)csc23)n(C)n1 has a residual activity [1] of 72.9%, a residual activity [2] of 97.2% and a residual activity [3] of 85%. The residual activity [4] was 96.7%, the residual activity [5] was 90.5% and the residual activity [6] was 97.9%.
Work on CC(C)S(=O)(=O)c1ccc2nccc(Nc3ccc4scnc4c3)c2c1 yielded a residual activity [1] of 106%, a residual activity [2] of 100% and a residual activity [3] of 97.5%. For the same molecule, the residual activity [4] was 95.3%, the residual activity [5] was 102% and the residual activity [6] was 106%.
Work on CNC(=O)c1ccc2c(c1)ncn2-c1ccc(CC(=O)OC(C)(C)C)cc1 yielded a residual activity [1] of 108%, a residual activity [2] of 94.6% and a residual activity [3] of 96.1%. The residual activity [4] was 97.7%, the residual activity [5] was 103% and the residual activity [6] was 96.7%.
